Here are results for 12 molecules from patent US20080207705A1, “Heteroaryl-Imidazole Derivatives as Cannabinoid CB1 Receptor Antagonists” (Green Cross Corporation, priority 2007, published 2008).

Each structure is given as a SMILES string.

This experiment deals with T1, rat CB-1 receptor (Rattus norvegicus, UniProt P20272).
T1 construct: The tissue obtained from the brain of SD rats was homogenized; from tissue; host or cells: brain of SD rats (membrane pellet of homogenate)
T1 sequence (P20272 whole entry): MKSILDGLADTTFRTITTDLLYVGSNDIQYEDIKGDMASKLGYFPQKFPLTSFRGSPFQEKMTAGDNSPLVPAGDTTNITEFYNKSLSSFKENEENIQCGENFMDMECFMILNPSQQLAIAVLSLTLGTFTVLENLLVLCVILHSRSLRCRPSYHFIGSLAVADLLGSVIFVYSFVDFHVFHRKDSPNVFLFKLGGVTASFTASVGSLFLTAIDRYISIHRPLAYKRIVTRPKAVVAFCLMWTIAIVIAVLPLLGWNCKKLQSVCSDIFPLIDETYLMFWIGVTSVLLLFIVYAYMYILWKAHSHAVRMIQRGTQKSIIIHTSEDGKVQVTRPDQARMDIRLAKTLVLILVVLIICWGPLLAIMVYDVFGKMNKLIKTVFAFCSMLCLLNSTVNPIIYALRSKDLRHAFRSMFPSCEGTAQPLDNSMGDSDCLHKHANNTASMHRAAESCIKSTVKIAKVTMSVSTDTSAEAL
The experiment can be described thus: rat CB-1 receptor binding protocol with [3H]CP-55940. As to conditions: [3H]CP-55940, brain tissue of SD rats, 30 °C for 60 min; read-out: IC50.
Procedure: The tissue obtained from the brain of SD rats was homogenized with a Dounce homogenate system in TME(50 mM Tris, 3 mM MgCl2 and 1 mM EDTA, pH 7.4) at 4° C., and the homogenate was centrifuged at 48,000 g for 30 min. at 4 ° C. The pellet was resuspended in 5 ml of TME and the suspension was divided into aliquots and stored at −70 ° C. until its use in the following assay.
The tissue concentrations were determined by Bradford protein analysis, and 148 μl of brain tissue of the required concentration was added to the plate. The plate was covered and placed in a 30 ° C. incubator for 60 min, and then transformed on GF/B filtermat pretreated in polyethylenimine (PEI) using a cell harvester. Each filter was washed five times and dried at 60 ° C. for 1 hr.
`Cc1c(-c2nnc(C3(c4ccc(Cl)cc4)CC3)o2)nc(-c2ccc(Cl)cc2Cl)n1-c1ccc(Br)cc1` [Example 48, 2-(1-(4-Bromophenyl)-2-(2,4-dichlorophenyl)-5-methyl-1H-imidazol-4-yl)-5-(1-(4-chlorophenyl)cyclopropyl)-1,3,4-oxadiazole]: the IC50 (usually the concentration needed to halve the response being measured) turned out to be 18.7 nM.
To `CCc1c(-c2nnc(C3(C(F)(F)F)CCC3)s2)nc(-c2ccc(Cl)cc2Cl)n1-c1ccc(Br)cc1` [Example 140, 2-(1-(4-Bromophenyl)-2-(2,4-dichlorophenyl)-5-ethyl-1H-imidazol-4-yl)-5-(1-(trifluoromethyl)cyclobutyl)-1,3,4-thiadiazole] belongs 6.74 nM; to `CCc1c(-c2nnc(C3CCCCC3)o2)nc(-c2ccc(Cl)cc2Cl)n1-c1ccc(Cl)cc1` [Example 12, 2-(1-(4-Chlorophenyl)-2-(2,4-dichlorophenyl)-5-ethyl-1H-imidazol-4-yl)-5-cyclohexyl-1,3,4-oxadiazole], 48.4 nM.
`CCCc1c(-c2nnc(C3CCCCC3)o2)nc(-c2ccc(Cl)cc2Cl)n1-c1ccc(Cl)cc1` [Example 39, 2-(1-(4-Chlorophenyl)-2-(2,4-dichlorophenyl)-5-propyl-1H-imidazol-4-yl)-5-cyclohexyl-1,3,4-oxadiazole]: the IC50 worked out at 86.9 nM.
Under `Cc1c(-c2nnc(C3(C(F)(F)F)CC3)o2)nc(-c2ccc(Cl)cc2Cl)n1-c1ccc(Br)cc1` [Example 46, 2-(1-(4-Bromophenyl)-2-(2,4-dichlorophenyl)-5-methyl-1H-imidazol-4-yl)-5-(1-(trifluoromethyl)cyclopropyl)-1,3,4-oxadiazole] stands 15.6 nM; under `CCc1c(-c2nnc(C3(c4ccc(Cl)cc4)CCCC3)o2)nc(-c2ccc(Cl)cc2Cl)n1-c1ccc(Br)cc1` [Example 45, 2-(1-(4-Bromophenyl)-2-(2,4-dichlorophenyl)-5-ethyl-1H-imidazol-4-yl)-5-(1-(4-chlorophenyl)cyclopentyl)-1,3,4-oxadiazole], 11.4 nM.
For `CCc1cnc(-c2nc(-c3ccc(Cl)cc3Cl)n(-c3ccc(Cl)cc3)c2C)s1` [Example 194, 2-(1-(4-Chlorophenyl)-2-(2,4-dichlorophenyl)-5-methyl-1H-imidazol-4-yl)-5-ethylthiazole], the IC50 was found to be 70.2 nM.
On to `CCc1c(-c2nnc(C3(C(F)(F)F)CC3)s2)nc(-c2ccc(Cl)cc2Cl)n1-c1ccc(Br)cc1` [Example 139, 2-(1-(4-Bromophenyl)-2-(2,4-dichlorophenyl)-5-ethyl-1H-imidazol-4-yl)-5-(1-(trifluoromethyl)cyclopropyl)-1,3,4-thiadiazole], for which the IC50 stood at 15.9 nM.
Turning to `FC(F)(F)C1(c2nnc(-c3nc(-c4ccc(Cl)cc4Cl)n(-c4ccc(Br)cc4)c3Cn3cncn3)s2)CC1` [Example 165, 2-(5-((1H-1,2,4-Triazol-1-yl)methyl)-1-(4-bromophenyl)-2-(2,4-dichlorophenyl)-1H-imidazol-4-yl)-5-(1-(trifluoromethyl)cyclopropyl)-1,3,4-thiadiazole], the IC50 was determined as 5.59 nM.
Under `CCCc1c(-c2nnc(C3(c4ccc(Cl)cc4)CCC3)o2)nc(-c2ccc(Cl)cc2Cl)n1-c1ccc(Cl)cc1` [Example 38, 2-(1-(4-Chlorophenyl)-2-(2,4-dichlorophenyl)-5-propyl-1H-imidazol-4-yl)-5-(1-(4-chlorophenyl)cyclobutyl)-1,3,4-oxadiazole] stands 11.7 nM.
Under `CCc1c(-c2ncc(C(C)(C)C)o2)nc(-c2ccc(Cl)cc2Cl)n1-c1ccc(Br)cc1` [Example 188, 2-(1-(4-Bromophenyl)-2-(2,4-dichlorophenyl)-5-ethyl-1H-imidazol-4-yl)-5-tert-butyloxazole] stands 8.98 nM.
Under `Cc1c(-c2nnc(C3(C(F)(F)F)CCC3)o2)nc(-c2ccc(Cl)cc2Cl)n1-c1ccc(Br)cc1` [Example 47, 2-(1-(4-Bromophenyl)-2-(2,4-dichlorophenyl)-5-methyl-1H-imidazol-4-yl)-5-(1-(trifluoromethyl)cyclobutyl)-1,3,4-oxadiazole] stands 27.6 nM.
